Key:
human bronchial muscle = human bronchial muscle contraction stimulated by anti-human IgE; type: cell-based; settings: for IC50: contraction stimulated by anti-human IgE (1/1000), read-out: ED50 human bronchial muscle
Method: For the measurement of human bronchial muscle contraction, bronchial rings were obtained from patients undergoing surgical resection of the lungs typical for lung cancer. The muscle rings were set up in organ baths under an initial load of 3 g and contracted with 100 μM acetylcholine in Tyrode's solution to provide a standardized contraction. The organs were then washed until they returned to the baseline tension in Tyrode's solution containing atropine 1 μM, indomethacin 3 μM and polaramine 1 μM at 37° C.
Contraction was stimulated by the treatment of the muscle strips with anti-human IgE (1/1000) with or without LSI. The intensity of the contractions were expressed as the percentage of the acetylcholine-inducedcontraction. The percentage of inhibition by the LSI was calculated from the ratio of the relative contractions. The activity of several of the well known LSIs of other structural classes (Zileuton & MK886) are compared below with the quinolines of the present invention.

[1] = system: LTB4 / human blood polymorphonuclear leukocytes (PMN); assay: response of human blood polymorphonuclear leukocytes (PMN): A23187-stimulated LTB4 in human whole blood; type: cell-based; settings: Leukocyte, 0.5 h, LTB4, 30 μM ionophore A23187, 30 min, 37° C., read-out: ED50 human whole blood
Method: For evaluation of the response of human blood polymorphonuclear leukocytes (PMN), 0.5 ml aliquots of human blood with heparin as the anticoagulant are preincubated for 10 minutes with 2 μl dimethylsulfoxide (DMSO) alone or with DMSO containing the compound to be tested (shaken in water bath at 37° C.).
The PMN are then stimulated with a final concentration 30 μM of the ionophore A23187 for 30 minutes at 37° C. The reaction is terminated with 1 ml methanol. The incubate is cooled 20 minutes in an ice bath, vortexed, then centrifuged at 13,000 g.
The amount of LTB4 present in the removed supernatant is analysed by HPLC and/or radioimmune assays.

edema of the mouse ear = assay: Mouse Ear Inflammation Test (arachidonic acid-induced edema); type: in vivo; settings: oral, 60 minutes before arachidonic acid, swelling at 30 minutes, averaged over several experiments, read-out: Edema formation - ED50
Method: Because it is known that leukotrienes are the major mediators of the edema which follows the application of arachidonic acid on the skin of the mouse ear and because the human clinical trials have implicated leukotrienes in the pathology of Inflammatory Bowel Disease (IBD), the mouse ear inflammation test can be used as a model to predict efficacy in IBD.
In this test edema is induced by the topical application of 10 μl of a 20% arachidonic acid solution on the mouse ear. 60 minutes before arachidonic acid application the animals were treated orally with compound or vehicle. 30 minutes after the induction of inflammation the swelling of the ear was measured. The results averaged over several experiments are shown below.

[2] = system: Dextran Sulfate-induced colitis in mice; assay: Dextran Sulfate-induced colitis in mice; type: in vivo; settings: 10 mg/kg or 30 mg/kg orally bid; 5% dextran sulfate in drinking water
Source text: Mice, when provided 5% high molecular weight dextran sulfate in their drinking water for 5-7 days, develop an acute colitis with diarrhea, gross rectal bleeding, and weight loss (Okayasu et al., 1990, Gastroenterol, 98:694-702).

bronchodilator in man = settings: compared with prediction from inhibition of neutrophil-dependent LTB4 synthesis at blood concentration; cited from earlier work
TxB2 = assay: TNBS-induced colitis in rats: TxB2 synthesis by excised colonic tissue; type: in vivo, Male Wistar rats; settings: 30 and 100 mg/kg orally bid, 7 days; tissue incubated in vitro 20 minutes
Method: (§1) A colitis resembling human ulcerative colitis can be induced in rats by the intracolonic infusion of trinitrobenzene sulfonic acid (Wallace et al., 1990, Am J Physiol. 258:G527-34).
(§2) Male Wistar rats were lightly anesthetized with ether, and a 2.3 mm rubber cannula inserted into the lumen of the colon via the anus. The cannula was advanced so that the tip was approximately 8 cm proximal to the anus. Colitis is induced by the administration of 0.25 ml of 50% ethanol (vol/vol) containing 30 mg of 2,4,6-trinitrobenzene sulfonic acid (TNB) through the cannula. After instilling the TNB-ethanol solution, the cannula was left in place for a few seconds then gently removed.
(§3) Animals were sacrificed at various time intervals after the administration of TNB-ethanol for examination of the level of LTB4 in the tissue and for histological examination.
(§4) R-(-)-2-cyclopentyl-2-[4-(2-quinolinyl-methoxy)-phenyl]-acetic acid, at doses of 30 and 100 mg/kg or placebo is administered orally to these animals bid beginning 2 hours before induction of colitis and continuing for the next 7 days. Two hours after the administration of the test compound, animals are sacrificed and samples of the grossly inflammed colonic tissue are excised and incubated in vitro for 20 minutes.

[3] = system: TNBS-induced colitis in rats; assay: TNBS-induced colitis in rats: colonic damage; type: in vivo, Male Wistar rats; settings: 30 and 100 mg/kg orally bid, 7 days; 14 days following induction; vs placebo
Method: as §1, §2, §3
as §4, with “minutes. […]” for “minutes.”

LTB4 = assay: TNBS-induced colitis in rats: LTB4 synthesis by excised colonic tissue; type: in vivo, Male Wistar rats; settings: 30 and 100 mg/kg orally bid, 7 days; tissue incubated in vitro 20 minutes
Method: as §1, §2, §3, §4

Molecule `CS(=O)(=O)NC(=O)[C@@H](c1ccc(OCc2ccc3ccccc3n2)cc1)C1CCCCCC1` [Formula II, R-(-)-2-cycloheptyl-N-methylsulfonyl-2-[4-(2-quinolinyl-methoxy)-phenyl]-acetamide] has an IC50 (human bronchial muscle) of 800 nM, an IC50 [1] of 1100 nM and an ED50 (edema of the mouse ear) of 5.2 mg/kg. For the same molecule, the “occult blood in the stool” value [2] was “reduction in occult blood in the stool”, the stool consistency [2] was “improvement in stool consistency” and the symptoms of colitis [2] was “decrease in the symptoms of colitis”. For the same molecule, the weight loss [2] was “reduction in weight loss”.
With `CC(C)c1ccc2c(c1)c(SC(C)(C)C)c(CC(C)(C)C(=O)O)n2Cc1ccc(Cl)cc1` [MK886, reference compound] the “percentage of inhibition, human bronchial muscle” value (human bronchial muscle; @ μM (concentration not given), anti-human IgE (1/1000)) was 0-39%, the IC50 [1] was 430 nM and the ED50 (edema of the mouse ear) was roughly 100 mg/kg.
In the case of `O=C(O)[C@@H](c1ccc(OCc2ccc3ccccc3n2)cc1)C1CCCC1` [Formula I, R-(-)-2-cyclopentyl-2-[4-(2-quinolinyl-methoxy)-phenyl]-acetic acid], the IC50 (human bronchial muscle) is listed as 800 nM, the IC50 [1] is listed as 17000 nM and the “activity as a bronchodilator in man” value (bronchodilator in man) is listed as “considerably greater than would have been predicted”. The ED50 (edema of the mouse ear) was 48.7 mg/kg, the “synthesis of TxB2 in culture supernatants of inflamed colonic tissue” value (TxB2) was “not of TxB2” and the “frequency and extent of the ulcerations” value [3] was “reduces both the frequency of adhesions and the frequency and extend of the ulcerations”. The frequency of adhesions [3] was “reduces both the frequency of adhesions” and the “synthesis of LTB4 in culture supernatants of inflamed colonic tissue” value (LTB4) was “markedly inhibited”.
`O=C(O)C(O)(c1ccc(OCc2ccc3ccccc3n2)cc1)C1Cc2ccccc2C1` (single isomer, unassigned; (-)) [Formula IV, (-)-2-hydroxy-2-(2-indanyl)-2-[4-(2-quinolinyl-methoxy)-phenyl]-acetic acid] gave an IC50 (human bronchial muscle) of 100 nM, an IC50 [1] of 4500 nM and an ED50 (edema of the mouse ear) of 15 mg/kg.
Work on `CC(C)Cc1cc(C(C(=O)O)C2CCCCCC2)ccc1OCc1ccc2ccccc2n1` (single isomer, unassigned; (-)) [Formula III, (-)-2-cycloheptyl-2-[3-isobutyl-4-(2-quinolinyl-methoxy)-phenyl]-acetic acid] yielded an IC50 (human bronchial muscle) of 1000 nM, an IC50 [1] of 3000 nM and an ED50 (edema of the mouse ear) of 12.5 mg/kg.
With `CC(c1cc2ccccc2s1)N(O)C(N)=O` (stereo not drawn) [Zileuton, reference compound] the inhibition at 1 µM (human bronchial muscle; @ 1 μM, anti-human IgE (1/1000), read-out: percentage of inhibition, human bronchial muscle) was 4%, the IC50 [1] was 690 nM and the ED50 (edema of the mouse ear) was 47.4 mg/kg.

Source: patent US5391555A, “Methods for treating inflammatory bowel disease with leukotriene synthesis inhibitors” (Miles Inc., priority 1993, dated 1995)
